Here are results for 19 compounds from ChEMBL document CHEMBL5107989, “Design, synthesis and activity evaluation of isopropylsulfonyl-substituted 2,4- diarylaminopyrimidine derivatives as FAK inhibitors for the potential treatment of pancreatic cancer” (Eur J Med Chem, 2022).

Data set [1] concerns NCI-H1975. Nature of the data set: cells. The following applies: Homo sapiens, NCI-H1975, 72 h.
Description: Antiproliferative activity against gefitinib-resistant human NCI-H1975 cells assessed as inhibition of cell growth incubated for 72 hrs by CCK-8 assay
Data set [2] has as its system MIA PaCa-2. Nature of the data set: cells. As to conditions: Homo sapiens, MIA PaCa-2, 72 h.
Description: Antiproliferative activity against human MIA PaCa-2 cells harboring KRAS,TP53,CDKN2A and DPC4/SMAD4 mutations assessed as inhibition of cell growth incubated for 72 hrs by CCK-8 assay
A short description of data set [3]: Cytotoxicity against human L02 cells assessed as inhibition of cell growth incubated for 72 hrs by CCK-8 assay. It is filed as toxicity, cell-based. Background: Tetrazolium dyes change colour on reduction, which living cells bring about.
In data set [4] the test system is ASPC1. Nature of the data set: cells. As to conditions: Homo sapiens, ASPC1, 72 h.
Description: Antiproliferative activity against human ASPC1 cells harboring KRAS,TP53,CDKN2A and DPC4/SMAD4 mutations assessed as inhibition of cell growth incubated for 72 hrs by CCK-8 assay
For data set [5], the system named is Raji. Nature of the data set: cells. The following applies: Homo sapiens, 72 h.
Description: Antiproliferative activity against human Raji cells assessed as inhibition of cell growth incubated for 72 hrs by CCK-8 assay
For data set [6], the system named is KM3/BTZ. Nature of the data set: cells. The following applies: Homo sapiens, 72 h.
Description: Antiproliferative activity against bortezomib- resistant human KM3/BTZ cells assessed as inhibition of cell growth incubated for 72 hrs by CCK-8 assay
Data set [7] deals with Focal adhesion kinase 1 (Homo sapiens, UniProt Q05397). Nature of the data set: Inhibition of recombinant human FAK (393 to 698 residues) using poly (4:1 Glu, Tyr) peptide as substrate incubated for 60 mins in presence of ATP by ADP-Glo reagent based luminescent assay. For orientation: ADP-Glo first removes unused ATP, then detects ADP through luciferase.
Focal adhesion kinase 1, sequence (Q05397 whole entry, the tested form may be a part): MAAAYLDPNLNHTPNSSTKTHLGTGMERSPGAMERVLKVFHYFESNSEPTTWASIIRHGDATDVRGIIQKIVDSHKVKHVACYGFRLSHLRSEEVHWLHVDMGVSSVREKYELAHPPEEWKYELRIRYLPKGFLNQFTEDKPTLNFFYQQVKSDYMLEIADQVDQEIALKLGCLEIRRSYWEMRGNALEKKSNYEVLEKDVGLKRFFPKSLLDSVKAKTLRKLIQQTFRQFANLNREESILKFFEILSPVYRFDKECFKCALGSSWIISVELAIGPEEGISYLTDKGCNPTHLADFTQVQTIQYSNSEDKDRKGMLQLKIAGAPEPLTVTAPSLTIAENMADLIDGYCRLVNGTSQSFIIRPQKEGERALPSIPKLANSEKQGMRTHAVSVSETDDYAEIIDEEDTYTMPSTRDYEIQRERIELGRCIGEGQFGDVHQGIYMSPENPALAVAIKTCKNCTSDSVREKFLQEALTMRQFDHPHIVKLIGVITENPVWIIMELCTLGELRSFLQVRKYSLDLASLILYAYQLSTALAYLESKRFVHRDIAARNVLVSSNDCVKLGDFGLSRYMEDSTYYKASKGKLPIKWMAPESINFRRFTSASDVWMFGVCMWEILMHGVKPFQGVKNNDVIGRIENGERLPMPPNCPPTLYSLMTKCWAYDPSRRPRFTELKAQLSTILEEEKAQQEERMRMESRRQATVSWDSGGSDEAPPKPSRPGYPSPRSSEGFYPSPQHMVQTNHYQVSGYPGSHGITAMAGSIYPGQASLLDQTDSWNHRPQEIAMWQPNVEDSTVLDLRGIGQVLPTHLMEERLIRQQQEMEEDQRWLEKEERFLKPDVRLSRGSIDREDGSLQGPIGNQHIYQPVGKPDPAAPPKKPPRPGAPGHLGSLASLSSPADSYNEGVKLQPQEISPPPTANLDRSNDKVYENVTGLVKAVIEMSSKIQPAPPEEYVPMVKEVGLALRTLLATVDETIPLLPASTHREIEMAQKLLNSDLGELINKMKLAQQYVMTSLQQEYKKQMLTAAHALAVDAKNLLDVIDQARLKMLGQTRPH

Molecules are shown by their SMILES. Where only a bound is given, the exact number is not on record here.

Take `CNC(=O)c1ccccc1Nc1nc(Nc2ccc(N3CCOCC3)cc2OC)ncc1Cl`: the IC50 in data set [1] was more than 10 µM; in data set [2] it was 5.23 µM; in data set [4] it was 4.82 µM; in data set [5], more than 10 µM; in data set [6], 4.39 µM. Besides, the 50% inhibitory concentration (IC50) at 72 h in data set [3] was 5.21 µM.
With `CC(C)S(=O)(=O)c1ccccc1Nc1nc(Nc2ccc(CN3CCSCC3)cc2)ncc1Cl`, the IC50 in data set [1] turned out to be 3.51 µM; in data set [2], 0.452 µM; in data set [4] it was 0.735 µM; in data set [5] it was 2.21 µM; in data set [6], 2.49 µM. The IC50 at 72 h in data set [3] stood at 1.14 µM.
`CC(C)S(=O)(=O)c1ccccc1Nc1nc(Nc2ccc(CN3CCC(C(=O)NCCCCCC(=O)NO)CC3)cc2)ncc1Cl`: the IC50 in data set [1] is 7.86 µM; in data set [2], 1.23 µM; in data set [4], 6.98 µM; in data set [5], more than 10 µM; in data set [6], 2.89 µM. Besides, in data set [3], the IC50 at 72 h worked out at 2.99 µM.
`CC(C)S(=O)(=O)c1ccccc1Nc1nc(Nc2ccc(CN3CCC(CO)CC3)cc2)ncc1Cl`: the IC50 in data set [1] came out at 6.29 µM; in data set [2], 0.235 µM; in data set [4], 0.139 µM; in data set [5] it was 1.22 µM; in data set [6] it was 0.159 µM. Moreover, in data set [3], the IC50 at 72 h came out at 0.192 µM.
For the compound `COC(=O)CCCCCNC(=O)C1CCN(c2ccc(Nc3ncc(Cl)c(Nc4ccccc4S(=O)(=O)C(C)C)n3)cc2)CC1`, the IC50 in data set [1] is 7.42 µM; in data set [2] it was 0.622 µM; in data set [4] it was 1.92 µM; in data set [5] it was more than 10 µM; in data set [6], 9.77 µM. For the same compound, the IC50 at 72 h in data set [3] worked out at 1.98 µM.
Turning to `CCC(C)C(CO)NC(=O)C1CCN(Cc2ccc(Nc3ncc(Cl)c(Nc4ccccc4S(=O)(=O)C(C)C)n3)cc2)CC1` (stereo not given), the concentration for half-maximal inhibition (IC50) in data set [1] is 8.2 µM; in data set [2] it was 1.91 µM; in data set [4] it was 0.394 µM; in data set [5] it was more than 10 µM; in data set [6] it was 2.58 µM. Besides, the half-inhibitory concentration (IC50) at 72 h in data set [3] was 1.39 µM.
Regarding `CCOP(=O)(Cc1ccc(Nc2ncc(Cl)c(Nc3ccccc3S(=O)(=O)C(C)C)n2)cc1)OCC`, the concentration for half-maximal inhibition (IC50) in data set [1] is 2.95 µM; in data set [2], 4.71 µM; in data set [4], 2.98 µM; in data set [5] it was 1.67 µM; in data set [6], more than 10 µM; in data set [7], 0.000315 µM. Also, in data set [3], the IC50 at 72 h was found to be 7.93 µM.
In the case of `CC(C)S(=O)(=O)c1ccccc1Nc1nc(Nc2ccc(N3CCC(C(=O)O)CC3)cc2)ncc1Cl`, the IC50 was determined as 2.71 µM in data set [1]; 2.12 µM in data set [2]; 0.916 µM in data set [4]; 1.48 µM in data set [5]; 3.68 µM in data set [6]. Moreover, in data set [3], the IC50 at 72 h came to 1.51 µM.
For `CC(C)S(=O)(=O)c1ccccc1Nc1nc(Nc2ccc(CN3CCC(C(=O)O)CC3)cc2)ncc1Cl`, the IC50 in data set [1] was 2.81 µM; in data set [2], 1.13 µM; in data set [4] it was 0.472 µM; in data set [5] it was more than 10 µM; in data set [6], 1.02 µM. For the same compound, in data set [3], the IC50 at 72 h was 1.27 µM.
For `CC(C)S(=O)(=O)c1ccccc1Nc1nc(Nc2ccc(NC(=O)CN3CCC(C(=O)O)CC3)cc2)ncc1Cl`, the half-inhibitory concentration (IC50) in data set [1] amounted to 7.51 µM; in data set [2] it was 5.05 µM; in data set [4], 3.68 µM; in data set [5] it was 3.25 µM; in data set [6], 2.16 µM. Moreover, the IC50 at 72 h in data set [3] turned out to be 2.32 µM.
Take `CCOC(=O)C1CCN(c2ccc(Nc3ncc(Cl)c(Nc4ccccc4S(=O)(=O)C(C)C)n3)cc2)CC1`: the IC50 in data set [1] is 9.64 µM; in data set [2], 0.0126 µM; in data set [4], 0.451 µM; in data set [5], more than 10 µM; in data set [6], more than 10 µM. The IC50 at 72 h in data set [3] was found to be 0.981 µM.
Consider `CC(C)S(=O)(=O)c1ccccc1Nc1nc(Nc2ccc(CN3CCC(C(=O)NCCO)CC3)cc2)ncc1Cl`, for which the IC50 in data set [1] is 0.494 µM; in data set [2], 0.459 µM; in data set [4], 0.288 µM; in data set [5], more than 10 µM; in data set [6], 0.497 µM. Moreover, in data set [3], the IC50 at 72 h is 0.978 µM.
For `CCOC(=O)C1CCN(Cc2ccc(Nc3ncc(Cl)c(Nc4ccccc4S(=O)(=O)C(C)C)n3)cc2)CC1`, the IC50 in data set [1] is 2.08 µM; in data set [2] it was 7.09 µM; in data set [4] it was 0.295 µM; in data set [5] it was 2.96 µM; in data set [6] it was 0.262 µM. In addition, the IC50 at 72 h in data set [3] was found to be 0.453 µM.
As for `CC(C)S(=O)(=O)c1ccccc1Nc1nc(Nc2ccc(SCCCN3CCOCC3)cc2)ncc1Cl`, the IC50 in data set [1] is 2.88 µM; in data set [2], 4.75 µM; in data set [4] it was 3.52 µM; in data set [5], more than 10 µM; in data set [6], more than 10 µM. The IC50 at 72 h in data set [3] was 8.65 µM.
As for `CCOC(=O)C1CCN(CC(=O)Nc2ccc(Nc3ncc(Cl)c(Nc4ccccc4S(=O)(=O)C(C)C)n3)cc2)CC1`, the IC50 in data set [1] is 2.92 µM; in data set [2] it was 5.27 µM; in data set [4] it was 0.989 µM; in data set [5], 1.32 µM; in data set [6], 2.31 µM. Further, in data set [3], the half-inhibitory concentration (IC50) at 72 h worked out at 1.22 µM.
With `CC(C)S(=O)(=O)c1ccccc1Nc1nc(Nc2ccc(NC(=O)CN3CCC(C(=O)NCCCCCC(=O)NO)CC3)cc2)ncc1Cl`, the concentration for half-maximal inhibition (IC50) in data set [1] is more than 10 µM; in data set [2] it was 1.23 µM; in data set [4], 3.18 µM; in data set [5] it was more than 10 µM; in data set [6], more than 10 µM. Besides, in data set [3], the IC50 at 72 h was determined as 5.05 µM.
On to `COC(=O)CCCCCNC(=O)C1CCN(CC(=O)Nc2ccc(Nc3ncc(Cl)c(Nc4ccccc4S(=O)(=O)C(C)C)n3)cc2)CC1`, for which the IC50 in data set [1] is 3.82 µM; in data set [2], 1.23 µM; in data set [4] it was 5.94 µM; in data set [5], more than 10 µM; in data set [6], more than 10 µM. In addition, in data set [3], the IC50 at 72 h is 7.01 µM.
For `CC(C)S(=O)(=O)c1ccccc1Nc1nc(Nc2ccc(OCC(=O)N3CCOCC3)cc2)ncc1Cl`, the IC50 in data set [1] is 0.347 µM; in data set [2] it was 0.714 µM; in data set [4] it was 0.259 µM; in data set [5] it was 3.27 µM; in data set [6], 1.61 µM. In addition, the IC50 at 72 h in data set [3] worked out at 0.368 µM.
For the compound `CC(C)S(=O)(=O)c1ccccc1Nc1nc(Nc2ccc(N3CCC(C(=O)NCCCCCC(=O)NO)CC3)cc2)ncc1Cl`, the IC50 in data set [1] is 4.15 µM; in data set [2], 1.17 µM; in data set [4], 2.39 µM; in data set [5], more than 10 µM; in data set [6] it was more than 10 µM. Moreover, the half-maximal inhibitory concentration (IC50) at 72 h in data set [3] turned out to be 0.755 µM.

In general, IC50 refers to the concentration that inhibits the measured activity by half.
